Measured values published in patent publication US20230381503A1, “Compositions And Methods For Treating With A Combination Of Alternating Electric Fields And Ion Channel Inhibitors” (NOVOCURE GMBH, priority 2022, published 2023).

Tests used:
[1] = system: pGBM cell lines (SF188 and KNS42); assay: Cell count of pGBM cell lines with and without IAA94; assay type: cell-based, human; details: 100 uM IAA94, FIG. 3
From the text: (§1) The cell count in different cell lines (SF188 and KNS42) with and without IAA94.
(§2) Similar efficacy was observed when using TTFields as a treatment for pGBM (FIG. 4).

pGBM = assay: Invasion / migration capacity of pGBM with IAA94; assay type: cell-based, human; details: FIG. 3
From the text: as §1, §2

GCE62, SF188 and KNS42 = assay: Cell proliferation of three cell lines treated with TTFields and IAA94; assay type: cell-based, human; details: TTFields and IAA94 compared to TTFields alone, FIG. 6
[2] = system: human glioblastoma primary culture; assay: Cell number after TTFields plus CLIC1 inhibitor IAA94; assay type: cell-based; details: TTFields plus IAA94 vs TTFields alone or IAA94 alone, FIG. 12
From the text: Thus, the combination therapy is a very effective treatment.

CC1(C2CCCC2)Cc2cc(OCC(=O)O)c(Cl)c(Cl)c2C1=O (centres unmarked) [IAA94]
overall cell count [1]: reduces overall cell count | invasive capacity (pGBM; 100 uM IAA94, pGBM): reduces invasive capacity | capacity of pGBM to proliferate, invade and migrate (pGBM; inhibition of CLIC1 and CLIC4 by IAA94): reduced the capacity of pGBM to proliferate, invade and migrate | cell proliferation, combination with TTFields (GCE62, SF188 and KNS42): significantly reduced cell proliferation compared to TTFields alone | cell number, combination with TTFields [2]: inhibits cell proliferation and/or kills more cells that TTFields alone or IAA94 alone
